Article PMC4965013, “Open Source Drug Discovery with the Malaria Box Compound Collection for Neglected Diseases and Beyond” (PLoS Pathogens, 2016)

How the values were obtained:
[1] = system: P. falciparum 3D7 trophozoites; test: Metabolomic fingerprint profiling LC-MS; format: cell-based, Plasmodium falciparum; design: UDP-D-glucose / ADP-D-glucose: unit not given here; settings: for Acetyllysine / N-acetyl-L-ornithine / N-carbamoyl-L-aspartate / NADPH / dAMP / dCMP / dTDP / dTMP / dTTP / dihydroorotate / orotate / DLH / DLS/SDL/SID / PD / PEE / PVNF / 3-phosphoglycerate / ADP-D-glucose / ATP / CDP / D-sedoheptulose-1/7-phosphate / FAD / GMP / NAD+ / NADP+ / Octoluse Bisphosphate / Pyroglutamic acid / UDP-D-glucose / UDP-D-glucuronate / UDP-N-acetyl-glucosamine / UDP / UMP / UTP / a-ketoglutarate / citrate/isocitrate / cytidine / dATP / dGMP/AMP / fumarate / glucose-1/6-phosphate / glycerate / guanine / guanosine / hypoxanthine / indole / inosine / nicotinate / ornithine / phosphoenolpyruvate / pyruvate / ribose-phosphate / sarcosine/alanine / sn-glycerol-3-phosphate / succinate/methylmalonic acid / uridine / xanthosine: S2 Table Metabolomics; for Acetyllysine: metabolite Acetyllysine; for N-acetyl-L-ornithine: metabolite N-acetyl-L-ornithine; for N-carbamoyl-L-aspartate: metabolite N-carbamoyl-L-aspartate; for NADPH: metabolite NADPH; for dAMP: metabolite dAMP; for dCMP: metabolite dCMP; for dTDP: metabolite dTDP; for dTMP: metabolite dTMP; for dTTP: metabolite dTTP; for dihydroorotate: metabolite dihydroorotate; for orotate: metabolite orotate; for DLH: peptide DLH; for DLS/SDL/SID: peptide DLS/SDL/SID; for PD: peptide PD; for PEE: peptide PEE; for PVNF: peptide PVNF; for 3-phosphoglycerate: metabolite 3-phosphoglycerate; for ADP-D-glucose: metabolite ADP-D-glucose; for ATP: metabolite ATP; for CDP: metabolite CDP; for CDP / D-sedoheptulose-1/7-phosphate / GMP / Octoluse Bisphosphate / UDP / UMP / UTP / citrate/isocitrate / dGMP/AMP / fumarate / glucose-1/6-phosphate / glycerate / guanine / guanosine / inosine / pyruvate / sarcosine/alanine / succinate/methylmalonic acid / uridine / xanthosine: change in metabolite level after compound treatment; for D-sedoheptulose-1/7-phosphate: metabolite D-sedoheptulose-1/7-phosphate; for FAD: metabolite FAD; for GMP: metabolite GMP; for NAD+: metabolite NAD+; for NADP+: metabolite NADP+; for Octoluse Bisphosphate: metabolite Octoluse Bisphosphate; for Pyroglutamic acid: metabolite Pyroglutamic acid; for UDP-D-glucose: metabolite UDP-D-glucose; for UDP-D-glucuronate: metabolite UDP-D-glucuronate; for UDP-N-acetyl-glucosamine: metabolite UDP-N-acetyl-glucosamine; for UDP: metabolite UDP; for UMP: metabolite UMP; for UTP: metabolite UTP; for a-ketoglutarate: metabolite a-ketoglutarate; for citrate/isocitrate: metabolite citrate/isocitrate; for cytidine: metabolite cytidine; for dATP: metabolite dATP; for dGMP/AMP: metabolite dGMP/AMP; for fumarate: metabolite fumarate; for glucose-1/6-phosphate: metabolite glucose-1/6-phosphate; for glycerate: metabolite glycerate; for guanine: metabolite guanine; for guanosine: metabolite guanosine; for hypoxanthine: metabolite hypoxanthine; for indole: metabolite indole; for inosine: metabolite inosine; for 2_3-Diphosphoglyceric acid / 4-phosphopantothenate / 6-phospho-D-gluconate / FMN / IMP / Pyrophosphate / Sedoheptoluse bisphosphate / cyclic-AMP / glutathione disulfide / lactate / myo-inositol: metabolite level change after treatment; for nicotinate: metabolite nicotinate; for ornithine: metabolite ornithine; for phosphoenolpyruvate: metabolite phosphoenolpyruvate; for pyruvate: metabolite pyruvate; for ribose-phosphate: metabolite ribose-phosphate; for sarcosine/alanine: metabolite sarcosine/alanine; for sn-glycerol-3-phosphate: metabolite sn-glycerol-3-phosphate; for succinate/methylmalonic acid: metabolite succinate/methylmalonic acid; for uridine: metabolite uridine; for xanthosine: metabolite xanthosine
P. falciparum = test: EC50 listed in S2 Table Metabolomics (used to set the concentration tested); format: cell-based; settings: Plasmodium falciparum; EC50 used for Factor_XEC50 in metabolomics; read-out: EC50_nM

CSC1=NC(=Nc2c(C)cccc2C)C2(CCC(C(C)(C)C)CC2)N1c1ccc(Cl)cc1 (stereo not shown) [MMV666596]
Acetyllysine [1]: 0.05532 | N-acetyl-L-ornithine [1]: 0.3033 | N-carbamoyl-L-aspartate [1]: 4.209 | NADPH [1]: 0.4611 | dAMP [1]: -1.695 | dCMP [1]: -0.02373 | dTDP [1]: -0.6033 | dTMP [1]: -0.6441 | dTTP [1]: -0.4211 | dihydroorotate [1]: 4.453 | orotate [1]: -0.2494 | DLH [1]: 0.07485 | DLS/SDL/SID [1]: 0.1058 | PD [1]: 0.3494 | PEE [1]: 0.3362 | PVNF [1]: -0.2122 | 3-phosphoglycerate [1]: 0.06499 | ADP-D-glucose [1]: 0.1455 | ATP [1]: -0.04037 | CDP [1]: -0.436 | D-sedoheptulose-1/7-phosphate [1]: -0.1476 | FAD [1]: 0.02917 | GMP [1]: -0.07998 | NAD+ [1]: -0.07608 | NADP+ [1]: 0.2106 | Octoluse Bisphosphate [1]: -0.01707 | Pyroglutamic acid [1]: -0.1892 | UDP-D-glucose [1]: -0.01772 | UDP-D-glucuronate [1]: -0.05432 | UDP-N-acetyl-glucosamine [1]: -0.1657 | UDP [1]: -0.847 | UMP [1]: -0.5062 | UTP [1]: -0.6788 | a-ketoglutarate [1]: -0.3441 | citrate/isocitrate [1]: -0.1956 | cytidine [1]: -0.05016 | dATP [1]: 0.3608 | dGMP/AMP [1]: -0.2908 | fumarate [1]: 0.4042 | glucose-1/6-phosphate [1]: -0.3631 | glycerate [1]: -0.704 | guanine [1]: -0.05943 | guanosine [1]: 0.2542 | hypoxanthine [1]: -0.3496 | indole [1]: -0.1947 | inosine [1]: -0.267 | 2_3-Diphosphoglyceric acid [1]: 0.06366 | 4-phosphopantothenate [1]: -0.3594 | 6-phospho-D-gluconate [1]: 0.1204 | FMN [1]: 0.0335 | IMP [1]: -0.08883 | Pyrophosphate [1]: 0.1408 | Sedoheptoluse bisphosphate [1]: 0.09241 | cyclic-AMP [1]: -0.008887 | glutathione disulfide [1]: 0.04205 | lactate [1]: -0.4137 | myo-inositol [1]: -0.699 | nicotinate [1]: -0.1654 | ornithine [1]: 0.2004 | phosphoenolpyruvate [1]: 0.0459 | pyruvate [1]: -0.8143 | ribose-phosphate [1]: 0.02121 | sarcosine/alanine [1]: -0.1953 | sn-glycerol-3-phosphate [1]: 0.3928 | succinate/methylmalonic acid [1]: 0.09915 | uridine [1]: -0.4544 | xanthosine [1]: -0.03694 | EC50 (P. falciparum): 135 nM

CCOC(=O)c1c(C)n(-c2ccc(Cl)cc2)c2ccc(OC(=O)C=Cc3ccccc3)cc12 [MMV666600]
Acetyllysine [1]: 0.2658 | N-acetyl-L-ornithine [1]: 0.3826 | N-carbamoyl-L-aspartate [1]: 0.5043 | NADPH [1]: -0.1791 | dAMP [1]: 0.1797 | dCMP [1]: 0.7303 | dTDP [1]: 0.6846 | dTMP [1]: 0.3563 | dTTP [1]: 0.1062 | dihydroorotate [1]: 0.2265 | orotate [1]: 0.0746 | DLH [1]: 0.4837 | DLS/SDL/SID [1]: 0.1278 | PD [1]: 0.2139 | PEE [1]: 0.4962 | PVNF [1]: 0.206 | 3-phosphoglycerate [1]: 0.1223 | ADP-D-glucose [1]: 0.3003 | ATP [1]: 0.3662 | CDP [1]: 0.7598 | D-sedoheptulose-1/7-phosphate [1]: 0.476 | FAD [1]: 0.1354 | GMP [1]: -0.291 | NAD+ [1]: 0.8191 | NADP+ [1]: 0.2752 | Octoluse Bisphosphate [1]: 0.3013 | Pyroglutamic acid [1]: 0.03669 | UDP-D-glucose [1]: 0.1154 | UDP-D-glucuronate [1]: 0.1408 | UDP-N-acetyl-glucosamine [1]: 0.05839 | UDP [1]: 0.7125 | UMP [1]: 0.02013 | UTP [1]: 0.206 | a-ketoglutarate [1]: -0.01449 | citrate/isocitrate [1]: 0.5294 | cytidine [1]: -0.3168 | dATP [1]: 0.2753 | dGMP/AMP [1]: 0.4942 | fumarate [1]: 0.3444 | glucose-1/6-phosphate [1]: 0.5114 | glycerate [1]: 0.0963 | guanine [1]: 0.1348 | guanosine [1]: -0.1252 | hypoxanthine [1]: 0.2037 | indole [1]: -0.0001746 | inosine [1]: 0.0653 | 2_3-Diphosphoglyceric acid [1]: 0.1463 | 4-phosphopantothenate [1]: 0.3013 | 6-phospho-D-gluconate [1]: 0.08781 | FMN [1]: -0.2862 | IMP [1]: 0.3406 | Pyrophosphate [1]: 0.1816 | Sedoheptoluse bisphosphate [1]: 0.1719 | cyclic-AMP [1]: 0.1868 | glutathione disulfide [1]: 0.1725 | lactate [1]: 0.1409 | myo-inositol [1]: -0.8322 | nicotinate [1]: 0.07374 | ornithine [1]: 0.01544 | phosphoenolpyruvate [1]: 0.01685 | pyruvate [1]: -0.07405 | ribose-phosphate [1]: 0.1875 | sarcosine/alanine [1]: -0.13 | sn-glycerol-3-phosphate [1]: -0.02611 | succinate/methylmalonic acid [1]: 0.1082 | uridine [1]: 0.1838 | xanthosine [1]: 0.13 | EC50 (P. falciparum): 216 nM
